From US5612344A, “Triazoloquinazolines for the treatment of central nervous disorders” (BASF Aktiengesellschaft, priority 1992, dated 1997)

Biological target: T1, NMDA (N-methyl-D-aspartate) receptors (Rattus norvegicus, UniProt P35439)
T1 construct: isolated membrane material from rat cerebra; from tissue; host or cells: rat cerebrum membranes
Test: Binding of 3H-5,7-dichlorokynurenic acid (displacement from rat cerebra membrane material)
Details: displacement of 3H-5,7-dichlorokynurenic acid, rat cerebra membranes, pH 7.4, on ice 30 minutes
Method: (§1) The pharmacological activity of the compounds I according to the invention was investigated on isolated membrane material from rat cerebra. To do this, the membrane material was treated in the presence of the compounds according to the invention with the radiolabeled substances ^3 H-2-amino-3-hydroxy-5-methyl-4-isoxazolepropionic acid (^3 H-AMPA) and ^3 H-5,7-dichlorokynurenic acid, these binding to specific receptors (AMPA and NMDA (N-methyl-D-aspartate) receptors respectively). Subsequently the radioactivity on the treated membranes was measured by scintillation counting. The amounts of bound ^3 H-AMPA and ^3 H-5,7-dichlorokynurenic acid, or in each case the amounts of these radiolabeled substances displaced, were determined from the bound radioactivity. The dissociation constant KI (I=inhibitor) which results from this and which is a measure of the displacing effect of the active substance according to the invention was found by iterative non-linear regression analysis using the statistical analysis system (SAS) on an IBM computer similar to the "ligand" program of P. J. Munson and D. Rodbard (Analytical Biochem., […], Ligand: Versatile Computerized Approach for Characterization of Ligand Binding Systems).
2. Binding of ^3 H-5,7-dichlorokynurenic acid
To prepare the membrane material, freshly removed rat cerebra were homogenized together with about 10 times the volume of a buffer solution A composed of 50 mM TRIS-HCl and 10 mM EDTA, pH 7.4. The suspension was centrifuged at 48,000 g for 20 minutes. […]
For the binding assay, the protein material was thawed at 37° C. and washed twice by centrifuging at 48,000 g (20 minutes) and subsequently suspending in a buffer solution B composed of 50 mM TRIS-HCl, pH 7.4. […] The radioactivity of the ^3 H-5,7-dichlorokynurenic acid bound to the membranes in the sediment was measured, and the KI was obtained by subjecting the displacement plots to regression analysis.

Ki [nM]	SMILES
160	CCOC(=O)c1nc2c3cc(C)c(C)cc3nc(=O)n2[nH]1 [Ethyl 8,9-dimethyl-1,2,4-triazolo-[1,5-c]-quinazolin-5-one-2-carboxylate]
200	O=C(O)c1nc2c3c(Cl)cc(Cl)cc3nc(=O)n2[nH]1 [8,10-Dichloro-1,2,4-triazolo[1,5-c]-quinazolin-5-one-2-carboxylic acid]
90	Cc1cc2nc(=O)n3[nH]c(C(=O)O)nc3c2cc1C [8,9-Dimethyl-1,2,4-triazolo[1,5-c]-quinazolin-5-one-2-carboxylic acid]

Biological target: AMPA receptors
Test: Binding of 3H-AMPA (displacement from rat cerebra membrane material)
Details: displacement of 3H-AMPA, rat cerebra membranes, pH 7.1, on ice 60 minutes
Method: as §1
1. Binding of ^3 H-2-amino-3-hydroxy-5-methyl-4-isoxazolepropionic acid (^3 H-AMPA)
To prepare the membrane material, freshly removed rat cerebra were homogenized together with 15 times the volume of a buffer solution A composed of 30 mM α,α,α-tris(hydroxymethyl)methylamine hydrochloride (TRIS-HCl) and 0.5 mM ethylenediaminetetraacetic acid (EDTA), pH 7.4, using an Ultra-Turrax. […]
For the binding assay, the protein material was thawed at 37° C. and washed twice by centrifuging at 48,000 g (20 minutes) and subsequently suspending in a buffer solution B composed of 50 mM TRIS-HCl, 0.1M potassium thiocyanate and 2.5 mM calcium chloride, pH 7.1. […] The radioactivity of the bound ^3 H-AMPA in the membrane material was measured by scintillation counting and then the KI was determined by subjecting the displacement plots to regression analysis.

Ki [nM]	SMILES
1300	O=C(O)c1nc2c3c(Cl)cc(Cl)cc3nc(=O)n2[nH]1 [8,10-Dichloro-1,2,4-triazolo[1,5-c]-quinazolin-5-one-2-carboxylic acid]
2600	O=C(O)c1nc2c3ccc([N+](=O)[O-])cc3nc(=O)n2[nH]1 [8-Nitro-1,2,4-triazolo[1,5-c]-quinazolin-5-one-2-carboxylic acid]
1400	O=C(O)c1nc2c3ccc(C(F)(F)F)cc3nc(=O)n2[nH]1 [8-Trifluoromethyl-1,2,4-triazolo[1,5-c]-quinazolin-5-one-2-carboxylic acid]
